The values below come from patent US8772250B2, “Compositions and methods for treating ischemia and ischemia-reperfusion injury” (Ischemix, LLC, priority 2010, dated 2014).

The subject of this assay is myocardial I/R injury. As to the kind of experiment: Incidence of acute cardiac dysfunction and mortality in rat model of myocardial I/R injury. The class given is in vivo. The procedure:
The incidence of acute cardiac dysfunction associated with arrhythmia and cardiac arrest requiring intervention and the incidence of mortality due to these co-morbidities was examined in the rat model of myocardial I/R injury described herein for different dosages and dosage regimens for administering RLip-EA-OH. In vivo experiments were performed as described in Example 8 using dosage intervals described in Example 10. Treatments (i.e., vehicle, RLip-EA-OH) were administered as a left intra-ventricular injection, IV bolus, IV infusion, or orally. Specifically, the incidence of non-self-resolving cardiac dysfunction (i.e., extended fibrillation arrhythmia, sudden cardiac arrest) during ischemia and requiring intervention (direct mechanical cardiac resuscitation), and mortality associated with cardiac dysfunction were observed.

In the case of `C[C@H](NC(=O)[C@H](CCC(=O)O)NC(=O)CCCC[C@@H]1CCSS1)C(=O)O` [RLip-EA-OH, N-(R)-lipoyl-L-glutamyl-L- alanine], the “Intervention due to Arrhythmia/Arrest (%)” value reads like this: (Multi-dose (2x)) 3\19 (16) %; (Multi-dose (3x)) 4\18 (22) %; (Single dose) 6\17 (35) %. Besides, the “Mortality (%)” value by setting is: (Multi-dose (2x)) 1\19 (5) %; (Multi-dose (3x)) 1\18 (5) %; (Single dose) 2\17 (12) %.
